The results in this text go back to article PMC4220732 (Frontiers in Cellular and Infection Microbiology, 2014).

This experiment concerns the target T1, PefR (GAS PefR) (Streptococcus pyogenes, UniProt Q9A1K6).
T1 construct: gene SPy_0228; full ORF, N-terminal 6xHis tag (pRham N-His, pAJS11), tag cleavage not mentioned; expressed in E. coli (E. cloni 10G); as purified carries some heme
As to the kind of experiment: UV-visible absorbance titration at […] nm, linear fit. It is filed as binding.

pKd: −log10 of the molar value.

T1 sequence (Q9A1K6 entry or part of it): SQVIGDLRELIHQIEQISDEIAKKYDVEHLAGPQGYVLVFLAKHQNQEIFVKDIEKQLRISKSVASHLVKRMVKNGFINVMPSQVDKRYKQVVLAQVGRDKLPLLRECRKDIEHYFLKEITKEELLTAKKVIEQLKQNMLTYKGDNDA

Compound `C=CC1=C(C)c2cc3[nH]c(cc4nc(cc5[nH]c(cc1n2)c(C)c5CCC(=O)O)C(CCC(=O)O)=C4C)c(C)c3C=C` [PPIX] showed a pKd of 5.05.
